The supplement of paper PMC10307832

Tests used:
Assay in all cases: relative viability (nuclei count vs DMSO), 5 days (fraction); higher = more cells survive
A-427 = tested on: A-427
Method in brief: (§1)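 Relative viability divides the nuclei count in treated wells by that in vehicle wells. Lung cancer cell lines were seeded in 1536-well plates, dosed by pin tool the next day, and fixed and stained after 5 days in one step with final 0.05% Triton X-100, 1% formaldehyde and 1 ug/ml Hoechst. Dosing was a single drug or a fixed anchor-drug dose plus five library-drug doses (not always all listed) in √10 steps, and values are medians of duplicate plates imaged at 4×.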

COR-L 105 = tested on: COR-L 105
Method in brief: as §1

EKVX = tested on: EKVX
Method in brief: as §1

EMC-BAC-2 = tested on: EMC-BAC-2
Method in brief: as §1

H3255 = tested on: H3255
Method in brief: as §1

HCC-366 = tested on: HCC-366
Method in brief: as §1

LK-2 = tested on: LK-2
Method in brief: as §1

LOU-NH91 = tested on: LOU-NH91
Method in brief: as §1

NCI-H1563 = tested on: NCI-H1563
Method in brief: as §1

NCI-H1666 = tested on: NCI-H1666
Method in brief: as §1

NCI-H1734 = tested on: NCI-H1734
Method in brief: as §1

NCI-H1755 = tested on: NCI-H1755
Method in brief: as §1

NCI-H1792 = tested on: NCI-H1792
Method in brief: as §1

NCI-H1944 = tested on: NCI-H1944
Method in brief: as §1

NCI-H1975 = tested on: NCI-H1975
Method in brief: as §1

NCI-H2170 = tested on: NCI-H2170
Method in brief: as §1

NCI-H23 = tested on: NCI-H23
Method in brief: as §1

NCI-H520 = tested on: NCI-H520
Method in brief: as §1

NCI-H596 = tested on: NCI-H596
Method in brief: as §1

PC-3 [JPC-3] = tested on: PC-3 [JPC-3]
Method in brief: as §1

SK-MES-1 = tested on: SK-MES-1
Method in brief: as §1

`C[C@@H]1CN(CC(=O)Nc2ccc3c(c2)Cc2cccc(-c4cc(=O)cc(N5CCOCC5)o4)c2S3)C[C@H](C)O1` + CS(=O)(=O)CCNCc1ccc(-c2ccc3ncnc(Nc4ccc(OCc5cccc(F)c5)c(Cl)c4)c3c2)o1 [Lapatinib] (partner 2 µM) was tested, and the relative viability (A-427; first compound 0.04 µM) was 0.898, the relative viability (A-427; first compound 0.1265 µM) was 1.05 and the relative viability (A-427; first compound 0.4 µM) was 1.18. For the same compound, the relative viability (A-427; first compound 4 µM) was 1.01, the relative viability (COR-L 105; first compound 0.04 µM) was 0.28 and the relative viability (COR-L 105; first compound 0.1265 µM) was 0.302. It also gave a relative viability (COR-L 105; first compound 0.4 µM) of 0.381, a relative viability (COR-L 105; first compound 4 µM) of 0.359 and a relative viability (EKVX; first compound 0.04 µM) of 0.271. The relative viability (EKVX; first compound 0.1265 µM) was 0.179, the relative viability (EKVX; first compound 0.4 µM) was 0.224 and the relative viability (EKVX; first compound 4 µM) was 0.211. The relative viability (EMC-BAC-2; first compound 0.04 µM) was 0.903, the relative viability (EMC-BAC-2; first compound 0.1265 µM) was 0.934 and the relative viability (EMC-BAC-2; first compound 0.4 µM) was 0.775. It also gave a relative viability (EMC-BAC-2; first compound 4 µM) of 0.827, a relative viability (H3255; first compound 0.04 µM) of 0.221 and a relative viability (H3255; first compound 0.1265 µM) of 0.242. The relative viability (H3255; first compound 0.4 µM) was 0.233, the relative viability (H3255; first compound 4 µM) was 0.214 and the relative viability (HCC-366; first compound 0.04 µM) was 0.383. The relative viability (HCC-366; first compound 0.1265 µM) was 0.974, the relative viability (HCC-366; first compound 0.4 µM) was 1.17 and the relative viability (HCC-366; first compound 4 µM) was 0.824. It also gave a relative viability (LK-2; first compound 0.1265 µM) of 0.938, a relative viability (LK-2; first compound 0.4 µM) of 0.936 and a relative viability (LK-2; first compound 4 µM) of 0.948. For the same compound, the relative viability (LOU-NH91; first compound 0.04 µM) was 0.689, the relative viability (LOU-NH91; first compound 0.1265 µM) was 0.792 and the relative viability (LOU-NH91; first compound 0.4 µM) was 0.676. The relative viability (LOU-NH91; first compound 4 µM) was 0.733, the relative viability (NCI-H1563; first compound 0.04 µM) was 0.834 and the relative viability (NCI-H1563; first compound 0.1265 µM) was 0.883. It also gave a relative viability (NCI-H1563; first compound 0.4 µM) of 0.859, a relative viability (NCI-H1563; first compound 4 µM) of 0.702 and a relative viability (NCI-H1666; first compound 0.04 µM) of 0.745. For the same compound, the relative viability (NCI-H1666; first compound 0.1265 µM) was 0.667, the relative viability (NCI-H1666; first compound 0.4 µM) was 0.665 and the relative viability (NCI-H1666; first compound 4 µM) was 0.579. For the same compound, the relative viability (NCI-H1734; first compound 0.04 µM) was 1.02, the relative viability (NCI-H1734; first compound 0.1265 µM) was 1.17 and the relative viability (NCI-H1734; first compound 0.4 µM) was 1.03. It also gave a relative viability (NCI-H1734; first compound 4 µM) of 1.23, a relative viability (NCI-H1755; first compound 0.04 µM) of 1.1 and a relative viability (NCI-H1755; first compound 0.1265 µM) of 0.995. For the same compound, the relative viability (NCI-H1755; first compound 0.4 µM) was 1, the relative viability (NCI-H1755; first compound 4 µM) was 0.932 and the relative viability (NCI-H1792; first compound 0.04 µM) was 0.824. The relative viability (NCI-H1792; first compound 0.1265 µM) was 0.832, the relative viability (NCI-H1792; first compound 0.4 µM) was 0.856 and the relative viability (NCI-H1792; first compound 4 µM) was 0.849. The relative viability (NCI-H1944; first compound 0.1265 µM) was 0.803, the relative viability (NCI-H1944; first compound 0.4 µM) was 0.977 and the relative viability (NCI-H1944; first compound 4 µM) was 0.876. The relative viability (NCI-H1975; first compound 0.04 µM) was 0.871, the relative viability (NCI-H1975; first compound 0.1265 µM) was 0.803 and the relative viability (NCI-H1975; first compound 0.4 µM) was 0.912. The relative viability (NCI-H1975; first compound 4 µM) was 0.754, the relative viability (NCI-H2170; first compound 0.1265 µM) was 0.251 and the relative viability (NCI-H2170; first compound 0.4 µM) was 0.277. It also gave a relative viability (NCI-H2170; first compound 4 µM) of 0.277, a relative viability (NCI-H23; first compound 0.04 µM) of 0.886 and a relative viability (NCI-H23; first compound 0.1265 µM) of 1.16. It also gave a relative viability (NCI-H23; first compound 0.4 µM) of 1.01, a relative viability (NCI-H23; first compound 4 µM) of 1.04 and a relative viability (NCI-H520; first compound 0.04 µM) of 0.983. For the same compound, the relative viability (NCI-H520; first compound 0.1265 µM) was 0.701, the relative viability (NCI-H520; first compound 0.4 µM) was 0.682 and the relative viability (NCI-H520; first compound 4 µM) was 0.711. It also gave a relative viability (NCI-H596; first compound 0.04 µM) of 1.07, a relative viability (NCI-H596; first compound 0.1265 µM) of 1.24 and a relative viability (NCI-H596; first compound 0.4 µM) of 1.06. For the same compound, the relative viability (NCI-H596; first compound 4 µM) was 1.03, the relative viability (PC-3 [JPC-3]; first compound 0.04 µM) was 0.512 and the relative viability (PC-3 [JPC-3]; first compound 0.1265 µM) was 0.394. The relative viability (PC-3 [JPC-3]; first compound 0.4 µM) was 0.52, the relative viability (PC-3 [JPC-3]; first compound 4 µM) was 0.454 and the relative viability (SK-MES-1; first compound 0.04 µM) was 0.463. The relative viability (SK-MES-1; first compound 0.1265 µM) was 0.53, the relative viability (SK-MES-1; first compound 0.4 µM) was 0.429 and the relative viability (SK-MES-1; first compound 4 µM) was 0.409.
